In article PMC4790305, “An FDA-Drug Library Screen for Compounds with Bioactivities against Meticillin-Resistant Staphylococcus aureus (MRSA)” (Antibiotics, 2015):
Converted amounts (≈) assume the structure as drawn. Read-outs that look alike come from different tables or passages of the source.

What was measured:
[1] = test system: MRSA USA 100 (ATCCBAA-1681); experiment: Minimum inhibitory concentration (MIC) assay, MRSA USA 100; format: cell-based, meticillin-resistant Staphylococcus aureus; conditions: Staphylococcus aureus, read-out: MRSA MICs USA 100
Source text: (§1) The 1163 FDA-approved drugs were purchased as a library set from Selleckchem (catalog #L1300). For MIC assays, Ivacaftor, Mupirocin and Tigecycline were purchased from Santa Cruz Biotechnology (Dallas, TX, USA). All other test compounds were purchased from Sigma-Aldrich (St. Louis, MO, USA) and were used without further purification. MRSA strains USA 100 (ATCCBAA-1681), USA 300 (ATCC-BAA-1680), USA400 (ATCC-BAA-1707) and VISA (ATCC-700699) were purchased from ATCC (Manassas, VA, USA).
(§2) The MICs of antibiotics and peptides were determined using the microdilution method from the Clinical and Laboratory Standards Institute (CLSI) guidelines. Briefly, bacteria were grown fresh from frozen stock in MH2 agar at 37 °C. After an overnight incubation, five MRSA colonies were selected to grow in cation-adjusted MH2 broth (BD Biosciences catalog #212322) in a shaker incubator at 37 °C, 220 RPM. Cells were grown to an optical density (OD600) of 0.15–0.16 using a Microplate Spectrophotometer (Molecular Devices Spectra Max Plus), which corresponds to 1–2 × 10^8 CFU/mL. Test compounds were constituted into 4 mM DMSO stock solutions and then subjected to two-fold serial dilution in a 96-well plate with concentrations ranging from 100 to 0.2 μM in duplicates. The amount of 50 μL of microbial culture containing ~1–2 × 10^6 CFU/mL of microbes in the respective broths was introduced into each well containing 50 μL of compound. After an overnight incubation at 35 °C, OD600 measurements were conducted using the Microplate Spectrophotometer. The MIC was defined as the lowest drug concentration (μM) required to inhibit microbial growth.

[2] = test system: MRSA USA 300 (ATCC-BAA-1680); experiment: Minimum inhibitory concentration (MIC) assay, MRSA USA 300; format: cell-based, meticillin-resistant Staphylococcus aureus; conditions: Staphylococcus aureus, read-out: MRSA MICs USA 300
Source text: as §1, §2

[3] = test system: MRSA USA400 (ATCC-BAA-1707); experiment: Minimum inhibitory concentration (MIC) assay, MRSA USA 400; format: cell-based, meticillin-resistant Staphylococcus aureus; conditions: Staphylococcus aureus, read-out: MRSA MICs USA 400
Source text: as §1, §2

VISA (ATCC-700699) = experiment: Minimum inhibitory concentration (MIC) assay, VISA; format: cell-based, meticillin-resistant Staphylococcus aureus; conditions: Staphylococcus aureus, ATCC 700699 / MRSA / VISA, read-out: MRSA MICs VISA
Source text: as §1, §2

[4] = test system: Adult normal human epidermal keratinocytes (NHEK); experiment: Human epidermal keratinocyte viability (GI50) assay; format: cell-based; conditions: 120 h, read-out: Keratinocyte GI50
Experimental: Adult normal human epidermal keratinocytes (NHEK) were purchased from Lonza (catalog #00192627, Basel, Switzerland) and cultured in keratinocyte growth medium (Lonza KGM-Gold Bullet Kit) containing growth supplements (Lonza Reagent Pack) at 5% CO2 (37 °C). The cell viability assay was performed using the CellTiter-Glo Luminescent Cell Viability Assay protocol from Promega (www.promega.com, Fitchburg, WI, USA). Briefly, NHEK were treated with test compounds in keratinocyte growth medium in 96-well plates (Thermo Scientific Nunclon Delta, Waltham, MA, USA). Treated cells were incubated for 5 days at 5% CO2 (37 °C). Promega CellTiter-Glo Reagent was added and plates were shaken on an orbital shaker for […]. Next, well contents (100 μL) from each well were transferred into opaque 96-well plates (PerkinElmer OptiPlate-96) and luminescence measured by a microplate reader (Tecan Safire2).

MRSA USA300 [5] = experiment: Bactericidal/static determination assay; format: cell-based, meticillin-resistant Staphylococcus aureus; conditions: MRSA USA300, 4× MIC; bactericidal when ≥99.9% cell death
Experimental: After the MICs of test compounds were determined using the microdilution method described in Section 2.2, the entire well contents (100 μL) corresponding to 4× the MIC of the antibiotic or peptide were transferred and spread on fresh sterile MH2 agar plates. The plates were incubated overnight at 37 °C and the number of colony forming units (CFU) was determined the next day. A compound was classified as bactericidal when ≥99.9% cell death was observed.

MRSA USA300 [6] = experiment: Time-kill assay; format: cell-based, meticillin-resistant Staphylococcus aureus; conditions: MRSA USA300, 4× MIC, within 6 h
Experimental: Bacteria cells were grown to 1 × 10^8 CFU/mL in MH2 broth and then diluted […] into 5 mL aliquots to a density of 1 × 10^6 CFU/mL in a flask. Test compounds pre-dissolved in DMSO corresponding to 4× their MICs were then added into each flask with a final DMSO concentration of 2.5% v/v. The negative control was 2.5% DMSO. The flasks were incubated in a shaking incubator (220 RPM) at 37 °C. Samples (100 μL) were taken hourly from the flasks between t = 0 and t = 6 h. The samples were serially diluted in MH2 broth before plating on sterile MH2 agar and incubated overnight at 37 °C. A bacteria count for each plate was conducted the next day. A graph of Log CFU/mL was plotted against time to obtain the time-kill graph.

[7] = test system: panel of clinical MRSA strains (USA 100, USA 300, USA 400 and VISA); experiment: MIC assay against panel of clinical MRSA strains; format: cell-based, meticillin-resistant Staphylococcus aureus; conditions: Staphylococcus aureus; across USA 100, USA 300, USA 400 and VISA
Source text: as §1, §2

MRSA USA100 = experiment: Single-point 10 μM bacteria growth inhibition assay; format: cell-based, meticillin-resistant Staphylococcus aureus; conditions: MRSA USA 100
Source text: as §1
MRSA USA100 was grown from frozen glycerol stock on Mueller Hinton 2 (MH2) agar overnight at 37 °C. Five colonies were selected from the agar plate and grown in cation-adjusted MH2 broth (BD Biosciences catalog #212322, Franklin Lakes, NJ, USA) in a shaker incubator at 37 °C, 220 RPM. Cells were grown to 1–2 × 10^8 CFU/mL and diluted 1:100 in MH2 broth. An amount of 50 μL of test compounds pre-dissolved in MH2 broth at 20 μM concentrations were added in duplicates into each well in a 96-well plate. A total of 50 μL of bacteria inoculums containing ~1 × 10^6 CFU/mL of bacteria in MH2 broth was introduced into each well containing the test compounds. The final DMSO concentration was kept at 2.5% in each well. After an overnight incubation at 35 °C, optical density (OD600) of each well was determined using the Microplate Spectrophotometer (Molecular Devices Spectra Max Plus, Sunnyvale, CA, USA).

[8] = cited from earlier work
[9] = test system: human carcinoma cell lines; conditions: cited from earlier work
[10] = 5 days incubation, CellTiter-Glo

Compound | MIC ([1]; microdilution, overnight 35 °C) [µM] | MIC ([2]; microdilution, overnight 35 °C) [µM] | MIC ([3]; microdilution, overnight 35 °C) [µM] | MIC (VISA (ATCC-700699); microdilution, overnight 35 °C) [µM] | GI50 [4, 10] [µM] | Bactericidal/static classification (MRSA USA300 [5]) | log reduction in bacteria count (MRSA USA300 [6]) | MIC [7] [µM] | Antibacterial activity in single-point screen (MRSA USA100) | oral LD50 [8] [mg/kg] | cytotoxic concentrations towards human carcinoma cell lines [9] | MIC [1] [µM] | MIC [2] [µM] | MIC [3] [µM] | MIC (VISA (ATCC-700699)) [µM] | GI50 [4] [µM]
CC(=O)NC[C@H]1CN(c2ccc(N3CCOCC3)c(F)c2)C(=O)O1 [Linezolid] | 6.25 (≈ 2.11 µg/mL) | 6.25 (≈ 2.11 µg/mL) | 6.25 (≈ 2.11 µg/mL) | 3.13 (≈ 1.06 µg/mL) | > 100 | bacteriostatic | less than a log reduction |  |  |  |  |  |  |  |  | 
C/C(=C\C(=O)OCCCCCCCCC(=O)O)C[C@@H]1OC[C@H](C[C@@H]2O[C@H]2[C@@H](C)[C@H](C)O)[C@@H](O)[C@H]1O [Mupirocin] | 0.78 (≈ 0.39 µg/mL) | 0.39 (≈ 0.195 µg/mL) | 0.39 (≈ 0.195 µg/mL) | > 100 | > 50 |  |  |  |  |  |  |  |  |  |  | 
O=C(Nc1ccc([N+](=O)[O-])cc1Cl)c1cc(Cl)ccc1O [Niclosamide] | 0.78 (≈ 0.255 µg/mL) | 0.39 (≈ 0.128 µg/mL) | 0.78 (≈ 0.255 µg/mL) | 0.39 (≈ 0.128 µg/mL) | < 0.2 |  |  | 0.39 to 0.78 (≈ 0.128 to 0.255 µg/mL) | either bacteriostatic or bactericidal | > 1000 | sub-micromolar |  |  |  |  | 
OC1(c2ccc(Cl)c(C(F)(F)F)c2)CCN(CCCC(c2ccc(F)cc2)c2ccc(F)cc2)CC1 [Penfluridol] | 3.13 (≈ 1.64 µg/mL) | 3.13 (≈ 1.64 µg/mL) | 3.13 (≈ 1.64 µg/mL) | 3.13 (≈ 1.64 µg/mL) | 2.1 ± 0.6 |  |  | 3.13 (≈ 1.64 µg/mL) | either bacteriostatic or bactericidal |  |  |  |  |  |  | 
CN(C)c1cc(NC(=O)CNC(C)(C)C)c(O)c2c1C[C@H]1C[C@H]3[C@H](N(C)C)C(O)=C(C(N)=O)C(=O)[C@@]3(O)C(O)=C1C2=O [Tigecycline] | 0.78 (≈ 0.457 µg/mL) | 0.78 (≈ 0.457 µg/mL) | 0.78 (≈ 0.457 µg/mL) | 1.56 (≈ 0.914 µg/mL) | 20.6 ± 4.2 |  |  |  |  |  |  |  |  |  |  | 
CN[C@H](CC(C)C)C(=O)N[C@H]1C(=O)N[C@@H](CC(N)=O)C(=O)N[C@H]2C(=O)N[C@H]3C(=O)N[C@H](C(=O)N[C@H](C(=O)O)c4cc(O)cc(O)c4-c4cc3ccc4O)[C@H](O)c3ccc(c(Cl)c3)Oc3cc2cc(c3O[C@@H]2O[C@H](CO)[C@@H](O)[C@H](O)[C@H]2O[C@H]2C[C@](C)(N)[C@H](O)[C@H](C)O2)Oc2ccc(cc2Cl)[C@H]1O [Vancomycin] |  |  |  |  |  |  |  |  |  |  |  | 0.78 (≈ 1.13 µg/mL) | 0.78 (≈ 1.13 µg/mL) | 0.78 (≈ 1.13 µg/mL) | 6.25 (≈ 9.06 µg/mL) | > 100
